This is an account of results in US5736557A, “N,N-bis (quinolin-4-yl)-diamine derivatives, their preparation and their use as antimalarials” (Hoffman-La Roche, Inc., priority 1994, dated 1998).

The subject of one assay is Plasmodium berghei. Briefly: Activity against Plasmodium berghei in vivo in mice. Set-up: species or system Plasmodium berghei (strain ANKA) in mice. The procedure: Test Method for the Determination of the Activity Against Plasmodium berghei in vivo
The preparations are tested on mice infected with malaria pathogens (Plasmodium berghei). Male albino mice (IBM:MORO(SPF), FUELLINSDORF) weighing about 25 g are used as the test animals. They are kept in climatized rooms at 21°-22° C. in groups of 5 animals per cage. They receive ad libitum a diet feed with a low PABA content (NAFAG FUTTER .COPYRGT. No. 9009 PAB-45, PABA content 45 mg/kg) and drinking water. On the first day of the test (DO) the test animals are infected with Plasmodium berghei (strain ANKA). For this there is used heparinized blood of a donor mouse with about 30% parasitemia, which is diluted with physiological saline such that it contains 10^8 parasitized erythrocytes per ml. 0.2 ml of this suspension is injected intravenously (i.v.) into the mice to be treated and into the control mice. In untreated control animals the parasitemia normally reaches 30-40% on the third day after the infection (D+3) and the test animals die between days +5 and +7.
The substances to be tested are dissolved or suspended in distilled water or in a mixture of 7% Tween 80, 3% alcohol (96%) and water. Usually, 0.25 ml of this solution or suspension is administered once subcutaneously and perorally to groups of 5 test animals. Treatment is effected 24 hours after the infection. 10 control animals are treated in the same manner with solvent or suspension medium per test.
All substances are tested in a first test in a single dosage of 10 mg/kg. Only those substances which in this test (10 mg/kg) have shown a parasitaemia reduction of 90% are used for the titration. Suitable dilutions of the test substance can be used to obtain an accurate titration of the activity.
48 hours after the treatment (D+3) blood smears are prepared from all animals using blood from tail veins and are stained with giemsa. The average erythrocyte infection rate (parasitemiea in %) in the control groups as well as in the groups which have been treated with the test compounds is determined by counting under a microscope. The difference in the average values of the infection rates of control group (100%) and treated groups is calculated and expressed as a percentage reduction (GI%). The ED50 or ED90 is determined mathematically by means of the JMP programme (nonlinear fit). The ED50 (ED90) in mg/kg is that dose which after single administration reduces the average erythrocyte infection rate by 50% (90%) in comparison to the control group.

Assay [1] deals with chloroquine-resistant strains of the human-pathogenic Plasmodium falciparum. Nature of the assay: Growth inhibition of chloroquine-resistant Plasmodium falciparum strains in vitro. The following applies: for IC50: Plasmodium falciparum; for Resistance index: ratio of average IC50 values for resistant strains and average values for sensitive strains. It counts as cell-based. Here is the method: (§1) Test Method for the Determination of the Activity Against Plasmodium falciparum in vitro
(§2) The preparations are tested on intraerythrocytary stages of Plasmodium falciparum from asynchronous cultures according to the method of Desjardin et al. (Desjardins, R. E. et al: Quantitative assessment of antimalarial activity in vitro by a semiautomated microdilution technique. Antimicrob. Agents Chemother. 16, 710-718, (1979)).
(§3) The culture medium consists of RPMI 1640 with the addition of 25 mM HEPES, 25 mM NaHCO3, 100 μg/ml neomycin and […] (A^+). Human-A^+ erythrocytes are used as the Plasmodium falciparum host cells. The parasites are maintained at 37° C. in an atmosphere of 3% O2, 4% CO2, 9:3% N2 and 95% relative humidity.
(§4) In order to determine the activity, the preparations are dissolved in dimethyl sulphoxide, pre-diluted in the culture medium to a suitable starting concentration and subsequently titrated-out on to microtitre plates in the 2nd stage over 6-7 steps. After the addition of the parasite culture (0.7% parasitemia in 2.5% erythrocyte suspension) the test plates are incubated under the conditions given above for 48 h-72 h. The parasite growth in the different preparation concentrations is determined using [G--^3 H]-hypoxanthin incorporation compared to untreated control cultures on the same test plates. The 50% growth inhibition (IC50) is calculated according to logit regression analysis from the resulting dosage-activity curve.
(§5) The preparations are tested on at least one chloroquine-resistant and one chloroquine-sensitive Plasmodium falciparum strain. Additional sensitive and resistant strains are included for futher characterization.

Assay [2] relates to chloroquine-sensitive strains of the human-pathogenenic Plasmodium falciparum. Nature of the assay: Growth inhibition of chloroquine-sensitive Plasmodium falciparum strains in vitro. In kind it is cell-based. The procedure: as §1, §2, §3, §4, §5
Where [3] appears, read: po, percentage parasitemia reduction, single peroral dose 10 mg/kg, mice, read-out: GI % at 10 mg/kg po.
[4] abbreviates: sc, percentage parasitemia reduction, single subcutaneous dose 10 mg/kg, mice, read-out: GI % at 10 mg/kg sc.
Where [5] appears, read: read-out: IC50 growth inhibition, strain K1, chloroquine-resistant.
[6] abbreviates: NF54, strain NF54, chloroquine-sensitive, read-out: IC50 growth inhibition.
Where [7] appears, read: read-out: IC50 growth inhibition, strain 7G8, chloroquine-resistant.
Setting [8] is: read-out: IC50 growth inhibition, strain Indo, chloroquine-resistant.
[9] abbreviates: read-out: IC50 growth inhibition, strain ItG2F6, chloroquine-resistant.
Setting [10] is: read-out: IC50 growth inhibition, strain RFCF3, chloroquine-resistant.
[11] abbreviates: read-out: IC50 growth inhibition, strain W2 Mef, chloroquine-resistant.
[12] abbreviates: read-out: IC50 growth inhibition, strain RFMEF3, chloroquine-sensitive.
Where [13] appears, read: read-out: IC50 growth inhibition, strain W2, chloroquine-resistant.
The mark [14] stands for this setting: HB3, strain HB3, chloroquine-sensitive, read-out: IC50 growth inhibition.
Setting [15] is: strain FCH5C2, chloroquine-sensitive, read-out: IC50 growth inhibition.
[16] abbreviates: strain RFMEF3, chloroquine-sensitive, read-out: IC50 growth inhibition.
[17] abbreviates: strain Ro73, chloroquine-sensitive, read-out: IC50 growth inhibition.

≈ marks a conversion by molar mass, not a printed value. Read-outs that look alike come from different tables or passages of the source.

Take `Clc1ccc2c(N[C@H]3CCC[C@H](Nc4ccnc5cc(Cl)ccc45)C3)ccnc2c1` (relative stereo) [Example 7, ±-trans-N,N'-Bis-(7-chloroquinolin-4-yl)-cyclohexane-1,3-diamine]: the inhibition in vivo at 10 mg/kg was 97% in the assay on Plasmodium berghei (setting [3]) and 99% in the assay on Plasmodium berghei (setting [4]). Further, the IC50 in assay [1] (setting [5]) turned out to be 0.0105 µg/mL (≈ 0.024 µM); in assay [2] (setting [6]), 0.0107 µg/mL (≈ 0.0245 µM).

Regarding `CCN(CC)CCCC(C)Nc1ccnc2cc(Cl)ccc12` (stereo not shown) [Chloroquine, reference compound], in the assay with Plasmodium berghei (po, read-out: ED50 po), the median effective dose (ED50) stood at 2 mg/kg. Further, the inhibition in vivo at 10 mg/kg with Plasmodium berghei (po, read-out: GI % at 10 mg/kg po) worked out at 99.9%; in the assay with Plasmodium berghei (sc, read-out: GI % at 10 mg/kg sc) it was 99.9%. For the same compound, the IC50 in assay [1] (setting [7]) is 0.081 µg/mL (≈ 0.253 µM); in assay [1] (setting [8]) it was 0.052 µg/mL (≈ 0.163 µM); in assay [1] (setting [9]), 0.068 µg/mL (≈ 0.213 µM); in assay [1] (setting [5]), 0.114 µg/mL (≈ 0.356 µM); in assay [1] (setting [10]), 0.13 µg/mL (≈ 0.406 µM); in assay [1] (setting [11]), 0.079 µg/mL (≈ 0.247 µM). Besides, the IC50 stood at 0.0113 µg/mL (≈ 0.0353 µM) in assay [2] (HB3, read-out: IC50 growth inhibition, strain HB3, chloroquine-sensitive); 0.0076 µg/mL (≈ 0.0238 µM) in assay [2] (NF54, read-out: IC50 growth inhibition, strain NF54, chloroquine-sensitive); 0.0122 µg/mL (≈ 0.0381 µM) in assay [2] (read-out: IC50 growth inhibition, strain FCH5C2, chloroquine-sensitive); 0.0142 µg/mL (≈ 0.0444 µM) in assay [2] (setting [12]); 0.008 µg/mL (≈ 0.025 µM) in assay [2] (read-out: IC50 growth inhibition, strain Ro73, chloroquine-sensitive). Further, the Resistance index in assay [1] came to 8.7.

As for `Clc1ccc2c(NCc3ccccc3CNc3ccnc4cc(Cl)ccc34)ccnc2c1` [Example 1, (7-Chloroquinolin-4-yl)-[2-(7-chloroquinolin-4-yl-aminomethyl)-benzyl]-amin], the inhibition in vivo at 10 mg/kg in the assay on Plasmodium berghei (setting [3]) is 62%; in the assay on Plasmodium berghei (setting [4]), 97%. In addition, the IC50 in assay [1] (setting [7]) is 0.007 µg/mL (≈ 0.0152 µM); in assay [1] (setting [8]), 0.0069 µg/mL (≈ 0.015 µM); in assay [1] (setting [9]), 0.0047 µg/mL (≈ 0.0102 µM); in assay [1] (setting [5]) it was 0.0069 µg/mL (≈ 0.015 µM); in assay [1] (setting [10]), 0.0054 µg/mL (≈ 0.0118 µM); in assay [1] (setting [13]), 0.0058 µg/mL (≈ 0.0126 µM). The IC50 was 0.0049 µg/mL (≈ 0.0107 µM) in assay [1] (setting [11]); 0.0075 µg/mL (≈ 0.0163 µM) in assay [2] (setting [14]); 0.0102 µg/mL (≈ 0.0222 µM) in assay [2] (setting [6]); 0.0066 µg/mL (≈ 0.0144 µM) in assay [2] (setting [15]); 0.0065 µg/mL (≈ 0.0141 µM) in assay [2] (setting [16]); 0.0036 µg/mL (≈ 0.00784 µM) in assay [2] (setting [17]). In addition, the Resistance index in assay [1] amounted to 0.9.

Take `Clc1ccc2c(NCc3cccc(CNc4ccnc5cc(Cl)ccc45)c3)ccnc2c1` [Example 2, (7-Chloroquinolin-4-yl)-[3-(7-chloroquinolin-4-yl-aminomethyl)-benzyl]-amine]: the inhibition in vivo at 10 mg/kg in the assay on Plasmodium berghei (setting [3]) worked out at 87%; in the assay with Plasmodium berghei (setting [4]), 99%. The IC50 worked out at 0.0139 µg/mL (≈ 0.0303 µM) in assay [1] (setting [7]); 0.0158 µg/mL (≈ 0.0344 µM) in assay [1] (setting [8]); 0.019 µg/mL (≈ 0.0414 µM) in assay [1] (setting [9]); 0.017 µg/mL (≈ 0.037 µM) in assay [1] (setting [5]); 0.0263 µg/mL (≈ 0.0573 µM) in assay [1] (setting [10]); 0.1 µg/mL (≈ 0.218 µM) in assay [1] (setting [13]). In addition, the IC50 was 0.017 µg/mL (≈ 0.037 µM) in assay [1] (setting [11]); 0.0089 µg/mL (≈ 0.0194 µM) in assay [2] (setting [14]); 0.0103 µg/mL (≈ 0.0224 µM) in assay [2] (setting [6]); 0.0125 µg/mL (≈ 0.0272 µM) in assay [2] (setting [15]); 0.0078 µg/mL (≈ 0.017 µM) in assay [2] (setting [16]); 0.0133 µg/mL (≈ 0.029 µM) in assay [2] (setting [17]). Further, the Resistance index in assay [1] is listed as 2.8.

As for `Clc1ccc2c(NC3CCC(CC4CCC(Nc5ccnc6cc(Cl)ccc56)CC4)CC3)ccnc2c1` (stereo not shown) [Example 12, N,N'-Bis-(7-chloroquinolin-4-yl)-dicyclohexylmethane-4,4'-diamine], the IC50 in assay [1] (setting [7]) was 0.0171 µg/mL (≈ 0.032 µM); in assay [1] (setting [8]), 0.0137 µg/mL (≈ 0.0257 µM); in assay [1] (setting [9]), 0.0133 µg/mL (≈ 0.0249 µM); in assay [1] (setting [5]), 0.013 µg/mL (≈ 0.0244 µM); in assay [1] (setting [10]), 0.0072 µg/mL (≈ 0.0135 µM); in assay [1] (setting [13]), 0.025 µg/mL (≈ 0.0469 µM). Further, the IC50 in assay [1] (setting [11]) amounted to 0.0216 µg/mL (≈ 0.0405 µM); in assay [2] (setting [14]), 0.0263 µg/mL (≈ 0.0493 µM); in assay [2] (setting [6]), 0.0116 µg/mL (≈ 0.0217 µM); in assay [2] (setting [12]), 0.0137 µg/mL (≈ 0.0257 µM); in assay [2] (setting [15]), 0.0194 µg/mL (≈ 0.0364 µM); in assay [2] (setting [17]) it was 0.0178 µg/mL (≈ 0.0334 µM). For the same compound, the Resistance index in assay [1] is 0.9.

In the case of `Clc1ccc2c(NC/C=C/CNc3ccnc4cc(Cl)ccc34)ccnc2c1` [Example 13, N,N'-Bis-(7-chloroquinolin-4-yl)-2-butene-1,4-diamine], the IC50 in assay [1] (setting [5]) was 0.0181 µg/mL (≈ 0.0442 µM); in assay [2] (setting [6]), 0.0308 µg/mL (≈ 0.0752 µM).

The term IC50 denotes the point on the concentration scale where inhibition reaches its midpoint. Broadly, the ED50 is the midpoint of the dose-response relation.
